This is an account of results in patent US8299097B2, “Methods for treating inflammatory disorders” (The Brigham and Women's Hospital, Inc., priority 2008, dated 2012).

For assay [1], the system named is CHO cells expressing CysLT1R, CysLT2R, or P2Y12 receptors. As to the kind of experiment: Calcium flux in Fura-2-AM-loaded CHO transfectants. The note with it: LTE4 500 nM, ADP 100 μM; ADP response reflects endogenous P2Y receptors. It is filed as cell-based, human. (A change in cytosolic calcium serves as a functional read-out for many receptors and channels.)
Another assay concerns human blood platelets. As to the kind of experiment: Platelet activation, cytofluorographic detection of P-selectin (CD62P). The note with it: ADP 100 μM or LTE4 1 μM, 10 min. It counts as cell-based. The method, then: (§1) FIG. 6. […] Each antibody (Ab) was diluted in 50 μl of sterile saline. […] 6A. PAS stains of the lungs of representative mice treated with isotype control (top) or with an anti-CD42 platelet-depleting antibody (bottom). 6B. Inflammation (top) and goblet cell metaplasia (bottom) in the lungs of mice treated with the indicated LT and antibody. A cohort of mice was treated with clopidogrel as indicated. Results in 6B are from a single experiment with 5 mice per group. […] 6C. […] Results are from a single experiment performed three times on different donors.
(§2) Platelets accumulate in the lungs of asthmatic individuals (Jeffery, P. K., et al. 1989. Am. Rev. Respir. Dis. 140:1745-1753), and are also recruited to the lungs of ovalbumin sensitized and challenged mice by an IgE-dependent mechanism (Pitchford, S. C., et al. 2008. Am. J. Respir. Crit. Care Med. 177:604-612).

The target in assay [2] is T1, P2Y12 receptors (Mus musculus, UniProt Q9CPV9). In words: Clopidogrel effect on LTE4-mediated amplification of OVA-induced pulmonary inflammation. It is filed as in vivo. More on the design: from tissue; host or cells: whole animal: BALB/c (OVA model) and C57BL/6 (Der f model) mice. The method, then:
FIG. 4. […] 4A. […] Clopidogrel (500 μg/ml) was added to the drinking water of the indicated groups of mice for 72 h before the first intranasal dose of LTs, and was maintained throughout the treatment. Results are mean±SEM from at least 9 mice in each group. The experiments were repeated three times with similar results. 4B. PAS stains (left column) from representative mice in the indicated groups showing the effect of clopidigrel on goblet cell metaplasia. Higher magnification images of H & E stains (right) from the same animals showing cellular characteristics of the bronchovascular infiltrates. 4C. Effect of clopidogrel administration on the steady-state expression of IL-13 and MUC5AC mRNA as determined by real-time PCR of whole lung RNA extracted 24 h after the last OVA challenge of the indicated groups. Data are mean±SEM from 4-5 mice/group from a single experiment. Results in a second experiment were similar 4D-4F. […] 4D. Total cell numbers (top), percentages of eosinophils (middle), and total numbers of eosinophils in BAL fluid recovered 24 h after the last challenge with OVA. 4E. Goblet cell metaplasia (top) and representative PAS stains (bottom) from wild-type and p2ry12^−/− mice subjected to the same protocol. 4E. Inflammation scores from the same mice. Data in 4D-4F are from 4 mice per group. Results in a second experiment were similar 4G. BALB/c Cysltr1/Cysltr2^−/− mice and age-matched WT controls were subjected to the same protocol as the p2ry12^−/− mice. Total cell numbers (top), percentages of eosinophils (middle), and total numbers of eosinophils in BAL fluid recovered 24 h after the last challenge with OVA. Results are from 6 mice per group. Three experiments were performed with similar results. 4H. Goblet cell numbers (top) and representative PAS stains (bottom). 4I. Quantitative assessment of bronchovascular inflammation as determined by H & E stains. Results are from 6 mice/group.
FIG. 5. Effect of clopidogrel on LTE4-mediated amplification of pulmonary inflammation. 5A. […] The indicated mice were treated with clopidogrel for 72 h before the first dose of leukotriene. Results are mean±SEM from a minimum of 9 mice in each group. 5B. PAS stains (left column) from representative mice in the indicated groups showing the effect of clopidigrel on goblet cell metaplasia. Higher magnification images of H & E stains (right) from the same animals showing cellular characteristics of the bronchovascular infiltrates. 5C. Effect of clopidogrel administration on the steady-state expression of IL-13 and MUC5AC mRNA as determined by real-time PCR of whole lung RNA extracted 24 h after the last OVA challenge of the indicated groups. Data are mean±SEM from 4-5 mice/group. […]

In assay [3] the target is T1, P2Y12 receptors. The note with it: both antigen doses (3 and 10 μg Der f).
Method: Role of P2Y12 receptors in inflammation mediated by dust mite allergen. C57BL/6 mice were treated intranasally with the indicated dose of Dermatophagoides farinae (Der f) extract twice weekly for 3 weeks. Animals were euthanized 24 h after the last dose. […] Effect of clopidogrel treatment on bronchovascular inflammation and goblet cell metaplasia in C57BL/6 mice subjected to intranasal challenge with the indicated doses of an extract from the house dust mite. Results are the mean±SEM from 5 mice/group. The experiment was repeated three times with similar results.
To determine whether pharmacologic blockade of P2Y12 receptors altered pulmonary inflammatory responses in a more physiologic model of pulmonary inflammation, C57BL/6 mice were administered an extract of house dust mite Dermatophagoides farinea (Der f) intranasally twice weekly for three weeks, with or without clopidogrel treatment. Two different doses of Der f were used to elicit moderate (at 3 μg) and severe (at 10 μg) inflammation, respectively.
For Der f-mediated pulmonary inflammation, 6-8 week old C57BL/6 mice were lightly anaesthetized and received either 3 or 10 μg of Der f extract (Greer Labs) on days 0, 3, 7, 10, 14 and 17. Some mice received clopidogrel throughout the duration of the experiment. Mice were euthanized 24 h after the last intranasal instillation.
2.5 μm thick glycolmethacrylate sections were stained with H&E for general morphologic examination. […] The extent of cellular infiltration in the bronchovascular bundles was evaluated without knowledge of the particular treatment and was categorized arbitrarily as grade 0=no inflammation, grade 1=mild inflammation, grade 2=moderate inflammation, grade 3=severe inflammation. 15 bronchovascular bundles of each mouse were evaluated. […] The length of basal lamina of corresponding bronchus was measured by Image J (NIH image analysis software). […] The data were expressed as the average of goblet cell counts stained in each bronchus in each section per mm bronchial basal lamina.
A further assay has as its system mouse CD42b (GPIbα). As to the kind of experiment: Platelet depletion in sensitized mice given LTE4 and low-dose OVA. The note with it: in vivo. As for the experimental part: as §1, §2
The next assay has as its target T2, 5-LO (Homo sapiens, UniProt P09917).
T2 sequence (P09917 1-674): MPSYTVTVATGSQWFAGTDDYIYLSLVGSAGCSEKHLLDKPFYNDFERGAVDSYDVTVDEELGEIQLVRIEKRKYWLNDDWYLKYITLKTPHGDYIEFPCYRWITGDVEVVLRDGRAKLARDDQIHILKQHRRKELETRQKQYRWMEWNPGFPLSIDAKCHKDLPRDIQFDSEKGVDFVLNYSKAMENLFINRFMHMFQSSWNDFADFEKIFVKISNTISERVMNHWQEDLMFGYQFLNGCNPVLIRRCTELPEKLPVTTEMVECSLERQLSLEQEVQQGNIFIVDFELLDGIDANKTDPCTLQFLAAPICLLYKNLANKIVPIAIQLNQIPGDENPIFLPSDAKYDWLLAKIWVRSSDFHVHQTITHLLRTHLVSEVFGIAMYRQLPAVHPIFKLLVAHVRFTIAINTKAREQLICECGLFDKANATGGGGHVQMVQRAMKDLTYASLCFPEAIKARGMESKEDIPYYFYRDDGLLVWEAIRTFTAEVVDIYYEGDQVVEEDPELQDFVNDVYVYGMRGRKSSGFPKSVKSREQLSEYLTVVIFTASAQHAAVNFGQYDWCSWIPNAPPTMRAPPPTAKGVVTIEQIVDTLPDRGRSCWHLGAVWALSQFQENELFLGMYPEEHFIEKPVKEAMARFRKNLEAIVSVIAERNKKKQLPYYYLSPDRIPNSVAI
The note with it: cited from earlier work.

A further assay deals with human P2Y12 (Homo sapiens, UniProt Q9H244). In words: Binding of cys-LTs to membranes of CHO cells stably expressing the human P2Y12 receptor. More on the design: polyhistidine (HIS) tag (C); expressed in transfected cells. From the text: A P2Y12 receptor cDNA was amplified by reverse transcriptase polymerase chain reaction (RT-PCR) from RNA extracted from primary hMCs and cloned into a mammalian expression vector. Expression was confirmed by detection of a histidine (HIS) tag by flow cytometry. Another cohort of CHO cells were stably transfected with a P2Y12 receptor construct in reverse orientation as a negative control. […] The cys-LT-induced ERK activation blocked by pre-treatment of the cells with pertussis toxin (PTX), was attenuated by treatment with the P2Y12 receptor-selective antagonist 2-methylthioadenosine monophosphate (2-MesAMP) (FIG. 1C), and was resistant to MK571, an inhibitor that blocks CysLT1R and some P2Y receptors (Mamedova, L., et al. 2005. Biochem. Pharmacol. 71:115-125). […] These responses were resistant to PTX and 2-MesAMP, and susceptible to MK571 in the case of the CysLT1R transfectants.
human P2Y12, sequence (Q9H244 whole entry): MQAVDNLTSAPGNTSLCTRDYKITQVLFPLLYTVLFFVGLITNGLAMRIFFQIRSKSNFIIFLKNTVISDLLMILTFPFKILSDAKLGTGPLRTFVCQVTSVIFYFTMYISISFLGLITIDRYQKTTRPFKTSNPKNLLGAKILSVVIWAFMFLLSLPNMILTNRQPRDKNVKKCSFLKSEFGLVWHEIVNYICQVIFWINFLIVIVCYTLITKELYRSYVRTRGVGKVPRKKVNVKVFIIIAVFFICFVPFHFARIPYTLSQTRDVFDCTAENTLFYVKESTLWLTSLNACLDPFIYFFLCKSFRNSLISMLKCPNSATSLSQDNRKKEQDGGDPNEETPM
A human P2Y12 receptor cDNA was amplified by 30 cycles of PCR from reverse-transcribed total RNA extracted from primary cord blood hMCs. The primer sequences were 5′-[…] (SEQ ID NO: 1) and 3′-[…] (SEQ ID NO: 2). The fragment was cloned into a TA vector (INVITROGEN™). After verifying the nucleotide sequence, the fragment was subcloned into the multiple cloning site of the expression vector pEF1/His B, encoding a C-terminal polyhistidine (HIS) tag. A plasmid expressing the P2Y12 receptor construct in the forward orientation were transfected into CHO cells using Fugene HD reagent according to manufacturer's protocol. A construct in the reverse sequence was transfected in parallel as a negative control. […]
[^3H] […] Protein concentration was determined using Biorad Protein Assay Kit. […] The residual membrane-associated [^3H] on the filter was determined in 2 ml scintillation fluid by beta counter (Perkin Elmer). For [^3H]ADP, specific binding was determined by subtracting the amount of [^3H] bound in the presence of 100 μM 2-MesADP from total binding.

Another assay relates to P2Y receptor signaling. The note with it: mouse, in vivo; cited from earlier work.
The mark [4] stands for this setting: clopidogrel 500 μg/ml in drinking water.

T1 sequence (Q9CPV9 whole entry): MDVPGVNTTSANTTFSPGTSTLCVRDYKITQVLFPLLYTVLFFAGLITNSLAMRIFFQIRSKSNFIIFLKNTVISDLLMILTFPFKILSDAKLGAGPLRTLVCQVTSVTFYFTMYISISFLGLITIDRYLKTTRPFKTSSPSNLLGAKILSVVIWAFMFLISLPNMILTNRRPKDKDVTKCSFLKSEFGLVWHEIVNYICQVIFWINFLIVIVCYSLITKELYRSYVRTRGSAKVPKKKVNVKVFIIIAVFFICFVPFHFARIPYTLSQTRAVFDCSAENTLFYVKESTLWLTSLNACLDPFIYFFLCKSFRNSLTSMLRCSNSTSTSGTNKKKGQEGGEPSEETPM

In the case of `Nc1ncnc2c1ncn2[C@@H]1O[C@H](COP(=O)(O)OP(=O)(O)O)[C@@H](O)[C@H]1O` [ADP, adenosine diphosphate], in assay [1], the calcium flux result is “did exhibit a response”. For the same molecule, the “CD62P expression by platelets” value with human blood platelets is on record as “elicited CD62P expression”.

With `COC(=O)C(c1ccccc1Cl)N1CCc2sccc2C1` (stereo not drawn) [clopidogrel, methyl alpha-5 (4,5,6,7-tetrahydro (3,2-c)thienopyridyl)(2-chlorophenyl)-acetate], at P2Y12 receptors [2] (setting [4]), the “LTE4-induced potentiation of goblet cell metaplasia” value is given as “complete lack of LTE4-induced potentiation” and the “LTE4-induced potentiation of inflammation” value is “complete lack of LTE4-induced potentiation”. Also, the “lung expression of IL-13 and MUC5AC mRNA (real-time PCR)” value at P2Y12 receptors [2] (whole lung RNA 24 h after last OVA challenge) is listed as “substantially suppressed the expression of both”. In addition, at P2Y12 receptors [3], the “attenuation of BAL fluid eosinophilia” value is reported as approximately 75%, the goblet cell metaplasia result is recorded as “significant reductions” and the pulmonary inflammation entry was “significant reductions”. In addition, in the assay on mouse CD42b (GPIbα), the “LTE4-mediated expression of mRNA encoding IL-13 and MUC5AC” value was “sharply reduced”; the “combination of platelet depletion with clopidogrel” value is “not additive”.

Turning to `CC(c1cc2ccccc2s1)N(O)C(N)=O` (stereo not shown) [zileuton], the “block of cys-LT generation in vivo” value on 5-LO was approximately 50%.

Take `CCCCC/C=C\C\C=C/C=C/C=C/[C@@H](SC[C@H](NC(=O)CC[C@H](N)C(=O)O)C(=O)NCC(=O)O)[C@@H](O)CCCC(=O)O` [LTC4]: the “binding to membranes of the transfectants” value at human P2Y12 is reported as “also bound”.

Regarding `Cc1ccc(C(=O)Nc2ccc(S(=O)(=O)O)c3cc(S(=O)(=O)O)cc(S(=O)(=O)O)c23)cc1NC(=O)c1cccc(NC(=O)Nc2cccc(C(=O)Nc3cc(C(=O)Nc4ccc(S(=O)(=O)O)c5cc(S(=O)(=O)O)cc(S(=O)(=O)O)c45)ccc3C)c2)c1` [suramin], the “allergen-induced pulmonary inflammation and AHR” value in the assay on P2Y receptor signaling was “dramatically inhibited”.
